Test results: ChEMBL document CHEMBL1147682, “New 4-(4-methyl-phenyl)phthalazin-1(2H)-one derivatives and their effects on alpha1-receptors” (Bioorg Med Chem Lett, 2006)
pKi: −log10 of the molar value.

Columns and labels:
Format in all cases: tissue-based
[1] = biological target: T1, Adrenergic receptor alpha-2 (Rattus norvegicus, UniProt P22086+P19328+P22909); experiment: Displacement of [3H]rauwolscine from alpha-2 adrenergic receptor in rat cerebral cortex
T1 sequence (P22086 whole entry): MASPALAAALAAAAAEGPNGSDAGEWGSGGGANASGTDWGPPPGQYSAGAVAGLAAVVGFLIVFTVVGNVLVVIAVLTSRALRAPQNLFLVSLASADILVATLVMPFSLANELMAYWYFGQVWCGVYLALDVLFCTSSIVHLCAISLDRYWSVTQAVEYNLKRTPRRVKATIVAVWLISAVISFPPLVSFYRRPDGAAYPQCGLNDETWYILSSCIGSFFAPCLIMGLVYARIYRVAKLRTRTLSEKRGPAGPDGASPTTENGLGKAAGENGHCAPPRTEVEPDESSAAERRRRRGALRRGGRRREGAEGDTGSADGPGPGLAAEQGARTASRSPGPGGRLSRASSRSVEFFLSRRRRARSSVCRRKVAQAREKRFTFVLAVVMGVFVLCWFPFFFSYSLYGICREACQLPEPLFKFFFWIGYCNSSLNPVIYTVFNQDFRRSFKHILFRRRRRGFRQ
T1 sequence (P19328 whole entry): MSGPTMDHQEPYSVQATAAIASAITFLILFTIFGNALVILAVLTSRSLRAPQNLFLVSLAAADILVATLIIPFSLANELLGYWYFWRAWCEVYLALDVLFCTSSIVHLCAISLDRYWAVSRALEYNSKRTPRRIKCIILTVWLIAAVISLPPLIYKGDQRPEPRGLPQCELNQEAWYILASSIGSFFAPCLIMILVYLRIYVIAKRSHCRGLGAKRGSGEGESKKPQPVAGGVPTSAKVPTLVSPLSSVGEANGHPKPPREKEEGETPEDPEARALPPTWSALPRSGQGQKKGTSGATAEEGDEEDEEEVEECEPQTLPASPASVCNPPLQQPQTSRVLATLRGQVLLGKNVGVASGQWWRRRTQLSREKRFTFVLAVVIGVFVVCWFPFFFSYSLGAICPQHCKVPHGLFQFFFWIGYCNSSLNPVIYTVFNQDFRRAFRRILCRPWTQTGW
T1 sequence (P22909 whole entry): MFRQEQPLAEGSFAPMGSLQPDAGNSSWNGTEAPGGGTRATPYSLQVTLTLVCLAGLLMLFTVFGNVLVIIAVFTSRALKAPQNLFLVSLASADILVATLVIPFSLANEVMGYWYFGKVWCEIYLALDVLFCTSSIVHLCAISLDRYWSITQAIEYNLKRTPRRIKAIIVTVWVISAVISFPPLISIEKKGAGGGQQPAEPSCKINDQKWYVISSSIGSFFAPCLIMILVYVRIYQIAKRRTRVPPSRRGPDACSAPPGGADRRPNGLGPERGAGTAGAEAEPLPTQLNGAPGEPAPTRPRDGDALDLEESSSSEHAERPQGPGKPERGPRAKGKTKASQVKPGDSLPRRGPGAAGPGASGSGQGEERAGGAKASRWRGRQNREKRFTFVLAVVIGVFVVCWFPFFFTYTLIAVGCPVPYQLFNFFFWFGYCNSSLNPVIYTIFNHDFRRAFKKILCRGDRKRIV

[2] = biological target: T2, 5-hydroxytryptamine receptor 1A (Rattus norvegicus, UniProt P19327); experiment: Displacement of [3H]8-OH-DPAT from 5HT1A serotonergic receptor in rat cerebral cortex
T2 sequence (P19327 whole entry): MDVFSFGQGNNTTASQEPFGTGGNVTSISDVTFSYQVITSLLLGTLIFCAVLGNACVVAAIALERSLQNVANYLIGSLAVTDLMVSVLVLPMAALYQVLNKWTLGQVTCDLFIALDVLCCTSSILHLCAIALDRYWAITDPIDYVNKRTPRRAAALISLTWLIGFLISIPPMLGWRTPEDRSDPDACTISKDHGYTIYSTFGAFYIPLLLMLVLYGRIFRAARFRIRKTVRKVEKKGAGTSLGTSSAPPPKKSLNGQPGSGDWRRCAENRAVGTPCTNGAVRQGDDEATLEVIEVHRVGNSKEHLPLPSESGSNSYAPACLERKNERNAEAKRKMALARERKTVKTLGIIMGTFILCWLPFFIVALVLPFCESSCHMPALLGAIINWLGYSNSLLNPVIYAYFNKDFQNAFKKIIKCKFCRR

[3] = biological target: T3, Serotonin 1a (5-HT1a) receptor/Adrenergic receptor alpha-1 (Rattus norvegicus) (UniProt P15823+P23944+P43140+P19327); experiment: Selectivity for alpha-1 adrenergic receptor over 5HT1A serotonergic receptor in rat cerebral cortex
[4] = biological target: T4, Adrenergic receptor alpha-1 (Rattus norvegicus, UniProt P15823+P23944+P43140); experiment: Displacement of [3H]prazosin from alpha-1 adrenergic receptor in rat cerebral cortex
T4 sequence (P15823 whole entry): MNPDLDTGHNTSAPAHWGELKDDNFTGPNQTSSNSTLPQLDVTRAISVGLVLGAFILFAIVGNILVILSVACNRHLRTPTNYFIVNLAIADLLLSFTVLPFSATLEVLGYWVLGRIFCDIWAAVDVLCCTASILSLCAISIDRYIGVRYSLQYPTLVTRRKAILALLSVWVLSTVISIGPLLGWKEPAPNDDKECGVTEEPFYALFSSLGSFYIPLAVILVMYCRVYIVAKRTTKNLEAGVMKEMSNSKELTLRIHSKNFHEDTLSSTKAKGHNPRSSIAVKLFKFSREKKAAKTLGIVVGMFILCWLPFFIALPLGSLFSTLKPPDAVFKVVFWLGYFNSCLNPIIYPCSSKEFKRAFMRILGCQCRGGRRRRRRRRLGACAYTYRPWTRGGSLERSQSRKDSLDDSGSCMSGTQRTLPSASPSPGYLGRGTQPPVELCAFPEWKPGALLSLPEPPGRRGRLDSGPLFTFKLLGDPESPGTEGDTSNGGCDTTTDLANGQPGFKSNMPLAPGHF
T4 sequence (P23944 whole entry): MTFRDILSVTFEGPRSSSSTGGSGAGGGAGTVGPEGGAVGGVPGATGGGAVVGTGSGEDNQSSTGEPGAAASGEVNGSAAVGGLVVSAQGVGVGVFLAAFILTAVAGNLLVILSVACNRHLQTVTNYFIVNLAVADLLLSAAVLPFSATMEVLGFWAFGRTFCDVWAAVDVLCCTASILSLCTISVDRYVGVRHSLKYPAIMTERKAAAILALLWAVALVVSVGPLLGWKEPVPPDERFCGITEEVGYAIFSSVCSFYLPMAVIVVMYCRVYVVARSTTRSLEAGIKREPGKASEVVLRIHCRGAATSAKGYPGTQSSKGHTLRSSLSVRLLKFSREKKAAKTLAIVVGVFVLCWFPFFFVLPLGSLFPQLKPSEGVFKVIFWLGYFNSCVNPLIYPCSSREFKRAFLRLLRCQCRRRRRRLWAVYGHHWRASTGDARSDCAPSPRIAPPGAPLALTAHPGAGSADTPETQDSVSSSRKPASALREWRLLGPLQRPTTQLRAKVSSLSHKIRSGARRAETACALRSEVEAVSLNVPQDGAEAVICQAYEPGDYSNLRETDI
T4 sequence (P43140 whole entry): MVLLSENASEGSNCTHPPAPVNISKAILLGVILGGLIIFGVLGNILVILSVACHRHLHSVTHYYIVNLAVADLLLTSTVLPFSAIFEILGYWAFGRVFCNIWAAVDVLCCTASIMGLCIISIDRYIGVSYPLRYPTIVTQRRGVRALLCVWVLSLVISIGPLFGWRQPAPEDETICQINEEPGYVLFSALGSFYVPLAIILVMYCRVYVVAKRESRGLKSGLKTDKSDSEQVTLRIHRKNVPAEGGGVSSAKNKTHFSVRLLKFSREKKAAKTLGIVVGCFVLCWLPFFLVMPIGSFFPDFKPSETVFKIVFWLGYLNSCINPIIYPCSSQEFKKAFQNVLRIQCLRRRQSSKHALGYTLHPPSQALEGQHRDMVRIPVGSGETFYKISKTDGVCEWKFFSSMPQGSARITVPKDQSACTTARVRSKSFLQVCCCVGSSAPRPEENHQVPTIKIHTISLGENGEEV

[5] = biological target: T3, Serotonin 1a (5-HT1a) receptor/Adrenergic receptor alpha-1 (Rattus norvegicus); experiment: Selectivity for 5HT1A serotonergic receptor over alpha1 adrenergic receptor in rat cerebral cortex
[6] = biological target: T5, 5-hydroxytryptamine receptor 1A (Rattus norvegicus) (UniProt P19327); experiment: Displacement of [3H]8-OH-DPAT from 5HT1A serotonergic receptor in rat cerebral cortex at 10 uM
T5 sequence (whole entry): T2 sequence (P19327 whole entry)

[7] = biological target: Adrenergic receptor alpha-1 (Rattus norvegicus) (UniProt P15823+P23944+P43140); experiment: Displacement of [3H]prazosin from alpha-1 adrenergic receptor in rat cerebral cortex at 10 uM
[8] = biological target: Adrenergic receptor alpha-2 (Rattus norvegicus) (UniProt P22086+P19328+P22909); experiment: Displacement of [3H]rauwolscine from alpha-2 adrenergic receptor in rat cerebral cortex at 10 uM

## Cc1ccc(-c2nn(CCCCCCCN3CCN(c4cccc(C(F)(F)F)c4)CC3)c(=O)c3ccccc23)cc1
[1]
  Ki: 4180 nM
[2]
  pKi: 6.14
[3]
  Ratio Ki: 1.9
[4]
  Ki: 382 nM

## COc1ccccc1N1CCN(CCCCn2nc(-c3ccc(C)cc3)c3ccccc3c2=O)CC1
[1]
  Ki: 60.37 nM
[2]
  pKi: 7.41
[3]
  Ratio Ki: 14.8
[4]
  Ki: 2.6 nM

## CCOc1ccccc1N1CCN(CCn2nc(-c3ccc(C)cc3)c3ccccc3c2=O)CC1
[1]
  Ki: 867 nM
[2]
  pKi: 6.02
[3]
  Ratio Ki: 244
[4]
  Ki: 3.9 nM

## CCOc1ccccc1N1CCN(CCCCCCCn2nc(-c3ccc(C)cc3)c3ccccc3c2=O)CC1
[1]
  Ki: 889 nM
[2]
  pKi: 6.68
[3]
  Ratio Ki: 28.2
[4]
  Ki: 7.33 nM

## Cc1ccc(-c2nn(CCCCN3CCN(c4ccccc4)CC3)c(=O)c3ccccc23)cc1
[1]
  Ki: 186 nM
[2]
  pKi: 6.35
[3]
  Ratio Ki: 18.8
[4]
  Ki: 23.9 nM

## CCOc1ccccc1N1CCN(CCCCn2nc(-c3ccc(C)cc3)c3ccccc3c2=O)CC1
[1]
  Ki: 60.47 nM
[2]
  pKi: 7.39
[3]
  Ratio Ki: 18.3
[4]
  Ki: 2.23 nM

## Cc1ccc(-c2nn(CCCCN3CCN(c4cccc(C(F)(F)F)c4)CC3)c(=O)c3ccccc23)cc1
[1]
  Ki: 186.5 nM
[2]
  pKi: 7.14
[5]
  Ratio Ki: 1.5
[4]
  Ki: 111.6 nM

## Cc1ccc(-c2nn(CCN3CCN(c4ccccc4OC(C)C)CC3)c(=O)c3ccccc23)cc1
[1]
  Ki: 1301 nM
[2]
  pKi: 5.89
[3]
  Ratio Ki: 258
[4]
  Ki: 5 nM

## Cc1ccc(-c2nn(CCCCCCCN3CCN(c4cccc(Cl)c4)CC3)c(=O)c3ccccc23)cc1
[1]
  Ki: 430 nM
[2]
  pKi: 6.17
[3]
  Ratio Ki: 18.2
[4]
  Ki: 37 nM

## Cc1ccc(-c2nn(CCCCN3CCN(c4ccccc4OC(C)C)CC3)c(=O)c3ccccc23)cc1
[1]
  Ki: 96 nM
[2]
  pKi: 7.09
[3]
  Ratio Ki: 75.7
[4]
  Ki: 1.07 nM

## COc1ccccc1N1CCN(CCn2nc(-c3ccc(C)cc3)c3ccccc3c2=O)CC1
[1]
  Ki: 578 nM
[2]
  pKi: 6.33
[3]
  Ratio Ki: 135
[4]
  Ki: 3.5 nM

## Cc1ccc(-c2nn(CCCCCCCn3ncc4ccccc4c3=O)c(=O)c3ccccc23)cc1
[6]
  inhibition: 10%
[7]
  inhibition: 26%
[8]
  inhibition: 15%

## Cc1ccc(-c2nn(CCN3CCN(c4ccccc4)CC3)c(=O)c3ccccc23)cc1
[1]
  Ki: 4262 nM
[2]
  pKi: 5.21
[3]
  Ratio Ki: 245
[4]
  Ki: 25.3 nM

## COc1ccccc1N1CCN(CCCCCCCn2nc(-c3ccc(C)cc3)c3ccccc3c2=O)CC1
[1]
  Ki: 105 nM
[2]
  pKi: 7.00
[3]
  Ratio Ki: 12
[4]
  Ki: 8.4 nM

## Cc1ccc(-c2nn(CCCCN3CCN(c4ncccn4)CC3)c(=O)c3ccccc23)cc1
[1]
  Ki: 2034 nM
[2]
  pKi: 5.93
[3]
  Ratio Ki: 4.4
[4]
  Ki: 270 nM

## Cc1ccc(-c2nn(CCCCN3CCN(c4cccc(Cl)c4)CC3)c(=O)c3ccccc23)cc1
[1]
  Ki: 178.2 nM
[2]
  pKi: 6.94
[3]
  Ratio Ki: 9.3
[4]
  Ki: 12.4 nM

## Cc1ccc(-c2nn(CCCCN3CCN(CC4COc5ccccc5O4)CC3)c(=O)c3ccccc23)cc1 (configuration not stated)
[1]
  Ki: 278 nM
[2]
  pKi: 5.71
[3]
  Ratio Ki: 10.7
[4]
  Ki: 180 nM
